As usually defined, the pIC50 is the IC50 on a negative log10 scale, so that one unit is a factor of ten.

pIC50: −log10 of the molar value.

T1 sequence (Q9NZQ7 with tags, fused parts or gaps): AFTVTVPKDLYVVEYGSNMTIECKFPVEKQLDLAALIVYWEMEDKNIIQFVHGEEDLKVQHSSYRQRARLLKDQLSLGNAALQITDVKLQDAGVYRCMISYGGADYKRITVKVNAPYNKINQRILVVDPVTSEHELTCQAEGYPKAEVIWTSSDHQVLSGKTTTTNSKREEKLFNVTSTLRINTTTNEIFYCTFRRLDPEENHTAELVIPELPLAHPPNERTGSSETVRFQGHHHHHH

The first test addresses T1, PD-1/PD-L1 interaction (PD-1-Ig / PD-L1-His) (Homo sapiens, UniProt Q9NZQ7).
T1 construct: hPDL1(18-239)-TVMV-His; TVMV protease site linker (C); made in house; host or cells: HEK293T
Kind of test: PD-1/PD-L1 Homogenous Time-Resolved Fluorescence (HTRF) binding assay. The note with it: IC50 range class; PD-L1-His 10 nM, PD-1-Ig 20 nM; read-out: Range or IC50. An excerpt: The ability of the compounds of formula (I) to bind to PD-L1 was investigated using a PD-1/PD-L1 Homogenous Time-Resolved Fluorescence (HTRF) binding assay.
Homogenous Time-Resolved Fluorescence (HTRF) Binding Assay.
The interaction of PD-1 and PD-L1 can be assessed using soluble, purified preparations of the extracellular domains of the two proteins. The PD-1 and PD-L1 protein extracellular domains were expressed as fusion proteins with detection tags, for PD-1, the tag was the Fc portion of Immunoglobulin (PD-1-Ig) and for PD-L1 it was the 6 histidine motif (PD-L1-His). All binding studies were performed in an HTRF assay buffer consisting of dPBS supplemented with 0.1% […] bovine serum albumin and 0.05% (v/v) Tween-20. For the h/PD-L1-His binding assay, inhibitors were pre-incubated with PD-L1-His (10 nM final) for 15 m in 4 μl of assay buffer, followed by addition of PD-1-Ig (20 nM final) in 1 μl of assay buffer and further incubation for 15 m. HTRF detection was achieved using europium crypate-labeled anti-Ig (1 nM final) and allophycocyanin (APC) labeled anti-His (20 nM final). Antibodies were diluted in HTRF detection buffer and 5 μl was dispensed on top of the binding reaction. […] Additional binding assays were established between the human proteins PD-1-Ig/PD-L2-His (20 & 5 nM, respectively) and CD80-His/PD-L1-Ig (100 & 10 nM, respectively). […]
On the technique in general: In TR-FRET formats the signal depends on donor and acceptor labels being close together.
Take `Cc1c(OCCCN2CCCC(CO)C2)cccc1-c1cccc(OCCCN2CC[C@@H](O)C2)c1C` (mixture of isomers) [Example 2003, (3R)-1-(3-((3′-(3-(3-(hydroxymethyl)piperidin-1-yl)propoxy)-2,2′-dimethyl-[1,1′-biphenyl]-3-yl)oxy)propyl)pyrrolidin-3-ol]: the pIC50 is 7.05 to 7.70. Consider `Cc1c(OCCCN(C)CC(O)CO)cccc1-c1cccc(OCCCN2CC[C@@H](O)C2)c1C` (mixture of isomers) [Example 2015, 3-((3-((3′-(3-((R)-3-hydroxypyrrolidin-1-yl)propoxy)-2,2′-dimethyl-[1,1′-biphenyl]-3-yl)oxy)propyl)(methyl)amino)propane-1,2-diol], for which the pIC50 was 7.05 to 7.70. The same measure, in the same setting: under `CCN(CC)C(=O)C1CCCN(CCCOc2cccc(-c3cccc(OCCCN4CC[C@@H](O)C4)c3C)c2C)C1` (mixture of isomers) [Example 2023, N,N-diethyl-1-(3-((3′-(3-((R)-3-hydroxypyrrolidin-1-yl)propoxy)-2,2′-dimethyl-[1,1′-biphenyl]-3-yl)oxy)propyl)piperidine-3-carboxamide] stands 7.05 to 7.70; under `Cc1c(OCCCN2CC[C@@H](O)C2)cccc1-c1cccc(OCCCN2CCCCC2CO)c1C` (mixture of isomers) [Example 2025, (3R)-1-(3-((3′-(3-(2-(hydroxymethyl)piperidin-1-yl)propoxy)-2,2′-dimethyl-[1,1′-biphenyl]-3-yl)oxy)propyl)pyrrolidin-3-ol], 7.05 to 7.70; under `Cc1c(OCCCN2CCCC(CO)C2)cccc1-c1cccc(OCCCN2CCCC(CO)C2)c1C` (mixture of isomers) [Example 2026, ((((2,2′-dimethyl-[1,1′-biphenyl]-3,3′-diyl)bis(oxy))bis(propane-3,1-diyl))bis(piperidine-1,3-diyl))dimethanol], 7.70 to 10.40.

In the case of `Cc1c(OCCCNCC(O)C(C)(C)O)cccc1-c1cccc(OCCCNCC(O)C(C)(C)O)c1C` (mixture of isomers) [Example 2029, 4,4′-((((2,2′-dimethyl-[1,1′-biphenyl]-3,3′-diyl)bis(oxy))bis(propane-3,1-diyl))bis(azanediyl))bis(2-methylbutane-2,3-diol)], the pIC50 is 7.70 to 10.40.

Take `Cc1c(OCCCNCC(O)c2cccnc2)cccc1-c1cccc(OCCCN2CC[C@@H](O)C2)c1C` (mixture of isomers) [Example 2040, (3R)-1-(3-((3′-(3-((2-hydroxy-2-(pyridin-3-yl)ethyl)amino)propoxy)-2,2′-dimethyl-[1,1′-biphenyl]-3-yl)oxy)propyl)pyrrolidin-3-ol]: the pIC50 is 7.05 to 7.70. Same read-out and setting: under `Cc1c(OCCCNCC(O)CO)cccc1-c1cccc(OCCCN2CC[C@@H](O)C2)c1C` (mixture of isomers) [Example 2059, 3-((3-((3′-(3-((R)-3-hydroxypyrrolidin-1-yl)propoxy)-2,2′-dimethyl-[1,1′-biphenyl]-3-yl)oxy)propyl)amino)propane-1,2-diol] stands 7.70 to 10.40.

For `Cc1c(OCCCN(C)CC(O)CO)cccc1-c1cccc(OCCCN(C)CC(O)CO)c1C` (mixture of isomers) [Example 2078, 3,3′-((((2,2′-dimethyl-[1,1′-biphenyl]-3,3′-diyl)bis(oxy))bis(propane-3,1-diyl))bis(methylazanediyl))bis(propane-1,2-diol)], the pIC50 is 7.70 to 10.40. The same measure, in the same setting: under `Cc1c(OCCCNCC(O)CO)cccc1-c1cccc(OCCCNCC(O)CO)c1C` (mixture of isomers) [Example 2083, 3,3′-((((2,2′-dimethyl-[1,1′-biphenyl]-3,3′-diyl)bis(oxy))bis(propane-3,1-diyl))bis(azanediyl))bis(propane-1,2-diol)] stands 7.70 to 10.40; under `Cc1c(OCCCNCC(C)(O)CO)cccc1-c1cccc(OCCCNCC(C)(O)CO)c1C` (mixture of isomers) [Example 2104, 3,3′-((((2,2′-dimethyl-[1,1′-biphenyl]-3,3′-diyl)bis(oxy))bis(propane-3,1-diyl))bis(azanediyl))bis(2-methylpropane-1,2-diol)], 7.70 to 10.40.

Take `Cc1c(OCCCN2CC[C@@H](O)C2)cccc1-c1ccc2c(c1)OC(CCN1CC[C@@H](O)C1)CO2` (single isomer, unassigned) [Example 3030]: the pIC50 was 7.70 to 10.40. Same read-out and setting: under `Cc1c(OCCCN2CC[C@@H](O)C2)cccc1-c1ccc2c(c1)OC(CCN1CC[C@@H](O)C1)CO2` (single isomer, unassigned) [Example 3031] stands 7.70 to 10.40; under `Cc1c(OCCCN2CC[C@@H](O)C2)cccc1-c1cccc(OCCCN2CC(O)C[C@H]2C(=O)O)c1C` (stereo in doubt) [Example 2051, (2S,4R)-4-hydroxy-1-(3-((3′-(3-((R)-3-hydroxypyrrolidin-1-yl)propoxy)-2,2′-dimethyl-[1,1′-biphenyl]-3-yl)oxy)propyl)pyrrolidine-2-carboxylic acid], 5.00 to 6.00; under `Cc1c(OCCCN2CCC(O)(CC(=O)O)C2)cccc1-c1cccc(OCCCN2CCC(O)(CC(=O)O)C2)c1Cl` (centres unmarked) [Example 1001, 2,2′-((((2-chloro-2′-methyl-[1,1′-biphenyl]-3,3′-diyl)bis(oxy))bis(propane-3,1-diyl))bis(3-hydroxypyrrolidine-1,3-diyl))diacetic acid], 7.05 to 7.70. Regarding `Cc1c(OCCCN2CCC(O)(C(=O)O)CC2)cccc1-c1cccc(OCCCN2CCC(O)(C(=O)O)CC2)c1Cl` [Example 1002, 1,1′-(((2-chloro-2′-methyl-[1,1′-biphenyl]-3,3′-diyl)bis(oxy))bis(propane-3,1-diyl))bis(4-hydroxypiperidine-4-carboxylic acid)], the pIC50 was 7.70 to 10.40. Consider `Cc1c(OCCCN2C[C@H](O)C[C@H]2C(=O)O)cccc1-c1cccc(OCCCN2C[C@H](O)C[C@H]2C(=O)O)c1Cl` [Example 1003, (2S,2′S,4R,4′R)-1,1′-(((2-chloro-2′-methyl-[1,1′-biphenyl]-3,3′-diyl)bis(oxy))bis(propane-3,1-diyl))bis(4-hydroxypyrrolidine-2-carboxylic acid)], for which the pIC50 was under 5.00. For `Cc1ccc(OCCCN2CC[C@@H](O)C2)cc1-c1cccc(OCCCN2CC[C@@H](O)C2)c1C` [Example 1004, (3R,3′R)-1,1′-(((2,6′-dimethyl-[1,1′-biphenyl]-3,3′-diyl)bis(oxy))bis(propane-3,1-diyl))bis(pyrrolidin-3-ol)], the pIC50 is 5.00 to 6.00. `CC(=O)N1CCN(CCCOc2cccc(-c3cccc(OCCCN4CC[C@@H](O)C4)c3C)c2C)CC1` [Example 2001, (R)-1-(4-(3-((3′-(3-(3-hydroxypyrrolidin-1-yl)propoxy)-2,2′-dimethyl-[1,1′-biphenyl]-3-yl)oxy)propyl)piperazin-1-yl)ethan-1-one]: the pIC50 is 7.05 to 7.70. On to `COc1cc2c(cc1OC)CN(CCCOc1cccc(-c3cccc(OCCCN4CC[C@@H](O)C4)c3C)c1C)CC2` [Example 2004, (R)-1-(3-((3′-(3-(6,7-dimethoxy-3,4-dihydroisoquinolin-2(1H)-yl)propoxy)-2,2′-dimethyl-[1,1′-biphenyl]-3-yl)oxy)propyl)pyrrolidin-3-ol], for which the pIC50 is 7.05 to 7.70. Still for that read-out and setting: then `Cc1c(OCCCNCCN2CCOCC2)cccc1-c1cccc(OCCCN2CC[C@@H](O)C2)c1C` [Example 2005, (R)-1-(3-((2,2′-dimethyl-3′-(3-((2-morpholinoethyl)amino)propoxy)-[1,1′-biphenyl]-3-yl)oxy)propyl)pyrrolidin-3-ol], with 7.05 to 7.70; and `Cc1c(OCCCNCc2ccncc2)cccc1-c1cccc(OCCCN2CC[C@@H](O)C2)c1C` [Example 2006, (R)-1-(3-((2,2′-dimethyl-3′-(3-((pyridin-4-ylmethyl)amino)propoxy)-[1,1′-biphenyl]-3-yl)oxy)propyl)pyrrolidin-3-ol], with 6.00 to 7.05. Regarding `Cc1c(OCCCNCCN(C)C)cccc1-c1cccc(OCCCN2CC[C@@H](O)C2)c1C` [Example 2007, (R)-1-(3-((3′-(3-((2-(dimethylamino)ethyl)amino)propoxy)-2,2′-dimethyl-[1,1′-biphenyl]-3-yl)oxy)propyl)pyrrolidin-3-ol], the pIC50 was 6.00 to 7.05.

Regarding `Cc1c(OCCCNCCn2cccn2)cccc1-c1cccc(OCCCN2CC[C@@H](O)C2)c1C` [Example 2008, (R)-1-(3-((3′-(3-((2-(1H-pyrazol-1-yl)ethyl)amino)propoxy)-2,2′-dimethyl-[1,1′-biphenyl]-3-yl)oxy)propyl)pyrrolidin-3-ol], the pIC50 was 6.00 to 7.05. Still for that read-out and setting: under `Cc1ccn(CCNCCCOc2cccc(-c3cccc(OCCCN4CC[C@@H](O)C4)c3C)c2C)n1` [Example 2009, (R)-1-(3-((2,2′-dimethyl-3′-(3-((2-(3-methyl-1H-pyrazol-1-yl)ethyl)amino)propoxy)-[1,1′-biphenyl]-3-yl)oxy)propyl)pyrrolidin-3-ol] stands 7.05 to 7.70.

Staying with this test, now noted: numeric IC50; PD-L1-His 10 nM, PD-1-Ig 20 nM; read-out: Range or IC50.
For `Cc1c(OCCCN2CC(N(C)C)C2)cccc1-c1cccc(OCCCN2CC[C@@H](O)C2)c1C` [Example 2002, (R)-1-(3-((3′-(3-(3-(dimethylamino)azetidin-1-yl)propoxy)-2,2′-dimethyl-[1,1′-biphenyl]-3-yl)oxy)propyl)pyrrolidin-3-ol], the pIC50 was 7.00.
